Where two headings read alike, the source gives them in different places.
What was measured:
CYP2C8 [1] = test: CYP2C8 mRNA induction in HTC model
CYP3A4 [2] = test: CYP3A4 mRNA induction in human hepatocyte triculture (HTC) model
CYP2C19 [3] = test: in vitro; details: human
CYP2C19 [4] = test: CYP2C19 enzyme activity induction in HTC model (omeprazole 5-hydroxylation)
CYP2C9 [5] = test: CYP2C9 mRNA induction in HTC model
CYP2C9 [6] = test: in vitro; details: human
CYP2C19 [7] = test: CYP2C19 mRNA induction in HTC model
CYP2B6 [8] = test: in vitro; details: human
CYP2B6 [9] = test: CYP2B6 mRNA induction in HTC model
CYP2C9 [10] = test: in vitro; details: human, probe diclofenac (4-hydroxy diclofenac formation)
CYP2C9 [11] = test: CYP2C9 enzyme activity induction in HTC model (diclofenac 4-hydroxylation)
CYP3A4 [12] = test: CYP3A4 enzyme activity induction in HTC model (midazolam 1-hydroxylation)
CYP2C8 [13] = test: in vitro; details: human
[14] = cited from earlier work
CYP3A4 [15] = details: victim drug; References of Tables 3 and 4 ([27]-[44]); cited from earlier work
CYP2C19 [16] = details: victim drug; References of Tables 3 and 4 ([27]-[44]); cited from earlier work
[17] = Donor 1, nominal concentrations, 96 h
[18] = victim drug after administration with rifampicin, References of Table 4 ([27]-[43]), DIDB

## CNC(=O)c1ccc(N2C(=S)N(c3cnc(C#N)c(C(F)(F)F)c3)C(=O)C23CCC3)cc1F [Apalutamide, apalutamide]
CYP2C8 [1]; Donor 1
  Emax Fold: […]
CYP2C8 [1]; Donor 2
  EC50: […]
  Emax Fold: […]
CYP2C8 [1]; Donor 3
  EC50: […]
  Emax Fold: […]
CYP2C8 [1]; range across three donors
  fold-induction (Emax): […]
CYP3A4 [2]; Donor 1
  Emax Fold: […]
CYP3A4 [2]; [17]
  EC50: […]
CYP3A4 [2]; Donor 2
  EC50: […]
  Emax Fold: […]
CYP3A4 [2]; Donor 3
  EC50: […]
  Emax Fold: […]
CYP3A4 [2]; range across three donors
  fold-induction (Emax): […]
CYP2C19 [3]
  EC50 at 96 h: […]
CYP2C19 [4]; Donor 1
  EC50: […]
  Emax Fold: […]
CYP2C19 [4]; Donor 2
  EC50: 1.03 µM
CYP2C19 [4]; Donor 3
  EC50: […]
  Emax Fold: […]
CYP2C9 [5]; Donor 1
  Emax Fold: […]
CYP2C9 [5]; Donor 2
  EC50: 0.419 µM
CYP2C9 [5]; Donor 3
  EC50: 0.474 µM
CYP2C9 [5]; range across three donors
  fold-induction (Emax): […]
CYP2C9 [6]
  EC50 at 96 h: 0.794 µM
CYP2C19 [7]; Donor 1
  Emax Fold: […]
CYP2C19 [7]; Donor 2
  EC50: 5.22 µM
CYP2C19 [7]; Donor 3
  EC50: […]
  Emax Fold: […]
CYP2B6 [8]
  EC50 at 96 h: […]
CYP2B6 [9]; Donor 1
  Emax Fold: […]
CYP2B6 [9]; Donor 2
  EC50: 2.98 µM
CYP2B6 [9]; Donor 3
  EC50: […]
  Emax Fold: […]
CYP2B6 [9]; range across three donors
  fold-induction (Emax): […]
CYP2C9 [10]
  EC50 at 96 h: […]
CYP2C9 [11]; Donor 1
  Emax Fold: […]
CYP2C9 [11]; Donor 2
  Emax Fold: […]
CYP2C9 [11]; Donor 3
  EC50: 23.7 µM
CYP3A4 [12]; Donor 1
  EC50: […]
  Emax Fold: […]
CYP3A4 [12]; Donor 2
  EC50: […]
  Emax Fold: […]
CYP3A4 [12]; Donor 3
  EC50: […]
  Emax Fold: […]
CYP2C8 [13]
  EC50 at 96 h: […]

## CC(NC(C)(C)C)C(=O)c1cccc(Cl)c1 (centres unmarked) [Bupropion, bupropion]
[14]; [18]
  % AUC Reduction (Clinically Observed): 67.2%

## NC(=O)N1c2ccccc2C=Cc2ccccc21 [Carbamazepine, carbamazepine]
CYP2C8 [1]; Donor 1
  EC50: […]
  Emax Fold: […]
CYP2C8 [1]; Donor 2
  EC50: […]
  Emax Fold: […]
CYP2C8 [1]; Donor 3
  EC50: 40.2 µM
CYP3A4 [2]; Donor 1
  Emax Fold: […]
CYP3A4 [2]; [17]
  EC50: […]
CYP3A4 [2]; Donor 2
  EC50: […]
  Emax Fold: […]
CYP3A4 [2]; Donor 3
  EC50: […]
  Emax Fold: […]
CYP2C19 [3]
  EC50 at 96 h: 124 µM
CYP2C19 [4]; Donor 1
  EC50: […]
CYP2C19 [4]; Donor 2
  EC50: 2.05 µM
CYP2C19 [4]; Donor 3
  EC50: […]
CYP2C9 [5]; Donor 1
  Emax Fold: […]
CYP2C9 [5]; Donor 2
  Emax Fold: […]
CYP2C9 [5]; Donor 3
  Emax Fold: […]
CYP2C9 [6]
  EC50 at 96 h: […]
CYP2C19 [7]; Donor 1
  Emax Fold: […]
CYP2C19 [7]; Donor 2
  EC50: 186 µM
CYP2C19 [7]; Donor 3
  EC50: […]
  Emax Fold: […]
CYP2B6 [8]
  EC50 at 96 h: 46.9 µM
CYP2B6 [9]; Donor 1
  Emax Fold: […]
CYP2B6 [9]; Donor 2
  EC50: […]
CYP2B6 [9]; Donor 3
  EC50: […]
  Emax Fold: […]
CYP2C9 [10]
  EC50 at 96 h: […]
CYP2C9 [11]; Donor 1
  Emax Fold: […]
CYP2C9 [11]; Donor 2
  Emax Fold: […]
CYP2C9 [11]; Donor 3
  Emax Fold: […]
CYP3A4 [12]; Donor 1
  EC50: […]
  Emax Fold: […]
CYP3A4 [12]; Donor 2
  EC50: […]
  Emax Fold: […]
CYP3A4 [12]; Donor 3
  EC50: […]

## COc1ccc(Cl)cc1C(=O)NCCc1ccc(S(=O)(=O)NC(=O)NC2CCCCC2)cc1 [Glyburide, glyburide]
[14]; [18]
  % AUC Reduction (Clinically Observed): 38.9%

## Cc1ncc2n1-c1ccc(Cl)cc1C(c1ccccc1F)=NC2 [Midazolam, midazolam]
[14]; in vivo
  % AUC Reduction (Clinically Observed): 94.7%

## COc1ccc2[nH]c([S+]([O-])Cc3ncc(C)c(OC)c3C)nc2c1 (centres unmarked) [Omeprazole, omeprazole]
CYP3A4 [15]
  fm CYP3A4: 0.32
[14]; [18]
  % AUC Reduction (Clinically Observed): 86.1%
CYP2C19 [16]
  fm CYP2C19: 0.68

— article PMC12389355, “Physiologically Based Pharmacokinetic Modeling to Assess Perpetrator and Victim Cytochrome P450 2C Induction Risk” (Pharmaceutics, 2025)
